From ChEMBL document CHEMBL3774317, “Design and synthesis of novel tamoxifen analogues that avoid CYP2D6 metabolism” (Eur J Med Chem, 2016)

Key:
Assay type in all cases: functional
[1] = Cytotoxicity against human UACC257 cells assessed as cell growth at 10^-5 M after 48 hrs by SRB assay; conditions: UACC-257, 48 h, read-out: Activity
[2] = Cytotoxicity against human BT549 cells assessed as cell growth at 10^-5 M after 48 hrs by SRB assay; conditions: BT-549, 48 h, read-out: Activity
[3] = system: KM12; test: Cytotoxicity against human KM12 cells assessed as cell growth at 10^-5 M after 48 hrs by SRB assay; conditions: KM12, 48 h, read-out: Activity
[4] = Cytotoxicity against human RPMI8226 cells assessed as cell growth at 10^-6 M after 48 hrs by SRB assay; conditions: RPMI-8226, 48 h, read-out: Activity
[5] = system: SK-MEL-5; test: Cytotoxicity against human SK-MEL-5 cells assessed as cell growth at 10^-5 M after 48 hrs by SRB assay; conditions: SK-MEL-5, 48 h, read-out: Activity
[6] = system: NCI-H460; test: Cytotoxicity against human NCI-H460 cells assessed as cell growth at 10^-4 M after 48 hrs by SRB assay; conditions: NCI-H460, 48 h, read-out: Activity
[7] = Cytotoxicity against human SF539 cells assessed as cell growth at 10^-5 M after 48 hrs by SRB assay; conditions: SF-539, 48 h, read-out: Activity
[8] = system: KM12; test: Cytotoxicity against human KM12 cells assessed as growth inhibition after 48 hrs by SRB assay; conditions: KM12, 48 h
[9] = Cytotoxicity against human SF295 cells assessed as cell growth at 10^-5 M after 48 hrs by SRB assay; conditions: SF-295, 48 h, read-out: Activity
[10] = Cytotoxicity against human UACC62 cells assessed as cell growth at 10^-5 M after 48 hrs by SRB assay; conditions: UACC-62, 48 h, read-out: Activity
[11] = system: MDA-MB-231; test: Cytotoxicity against human MDA-MB-231 cells assessed as cell growth at 10^-6 M after 48 hrs by SRB assay; conditions: MDA-MB-231, 48 h, read-out: Activity
[12] = Cytotoxicity against human NCI-ADR-RES cells assessed as growth inhibition after 48 hrs by SRB assay; conditions: for CC50: read-out: LC50 (the source's name)
[13] = Cytotoxicity against human OVCAR3 cells assessed as cell growth at 10^-5 M after 48 hrs by SRB assay; conditions: OVCAR-3, 48 h, read-out: Activity
[14] = system: SK-MEL-5; test: Cytotoxicity against human SK-MEL-5 cells assessed as cell growth at 10^-6 M after 48 hrs by SRB assay; conditions: SK-MEL-5, 48 h, read-out: Activity
[15] = system: NCI-H460; test: Cytotoxicity against human NCI-H460 cells assessed as growth inhibition after 48 hrs by SRB assay; conditions: NCI-H460, 48 h; for CC50: read-out: LC50 (the source's name)
[16] = Cytotoxicity against human Caki1 cells assessed as cell growth at 10^-7 M after 48 hrs by SRB assay; conditions: CAKI-1, 48 h, read-out: Activity
[17] = Cytotoxicity against human PC3 cells assessed as cell growth at 0.5 uM after 48 hrs by SRB assay; conditions: PC-3, 48 h, read-out: Activity
[18] = Cytotoxicity against human Hs 578T cells assessed as cell growth at 5 nM after 48 hrs by SRB assay; conditions: read-out: Activity
[19] = system: Malme-3M; test: Cytotoxicity against human MALME-3M cells assessed as cell growth at 5 uM after 48 hrs by SRB assay; conditions: read-out: Activity
[20] = Cytotoxicity against human HOP92 cells assessed as cell growth at 5 nM after 48 hrs by SRB assay; conditions: HOP-92, 48 h, read-out: Activity
[21] = system: SN12C; test: Cytotoxicity against human SN12C cells assessed as cell growth at 50 uM after 48 hrs by SRB assay; conditions: read-out: Activity
[22] = Cytotoxicity against human SF295 cells assessed as cell growth at 5 uM after 48 hrs by SRB assay; conditions: SF-295, 48 h, read-out: Activity
[23] = Cytotoxicity against human Caki1 cells assessed as cell growth at 5 nM after 48 hrs by SRB assay; conditions: CAKI-1, 48 h, read-out: Activity
[24] = Cytotoxicity against human OVCAR8 cells assessed as cell growth at 50 nM after 48 hrs by SRB assay; conditions: OVCAR-8, 48 h, read-out: Activity
[25] = system: HT-29; test: Cytotoxicity against human HT-29 cells assessed as cell growth at 0.5 uM after 48 hrs by SRB assay; conditions: HT-29, 48 h, read-out: Activity
[26] = system: U-251; test: Cytotoxicity against human U251 cells assessed as cell growth at 0.5 uM after 48 hrs by SRB assay; conditions: U-251, 48 h, read-out: Activity
[27] = system: SR; test: Cytotoxicity against human SR cells assessed as cell growth at 0.5 uM after 48 hrs by SRB assay; conditions: read-out: Activity
[28] = Cytotoxicity against human SKOV3 cells assessed as cell growth at 5 nM after 48 hrs by SRB assay; conditions: SK-OV-3, 48 h, read-out: Activity
[29] = system: A549; test: Cytotoxicity against human A549 cells assessed as cell growth at 50 nM after 48 hrs by SRB assay; conditions: A549, 48 h, read-out: Activity
[30] = Cytotoxicity against human DU145 cells assessed as cell growth at 5 uM after 48 hrs by SRB assay; conditions: DU-145, 48 h, read-out: Activity
[31] = system: NCI-H460; test: Cytotoxicity against human NCI-H460 cells assessed as cell growth at 5 nM after 48 hrs by SRB assay; conditions: NCI-H460, 48 h, read-out: Activity
[32] = Cytotoxicity against human RXF393 cells assessed as cell growth at 50 uM after 48 hrs by SRB assay; conditions: RXF 393, 48 h, read-out: Activity
[33] = Cytotoxicity against human RPMI8226 cells assessed as cell growth at 50 uM after 48 hrs by SRB assay; conditions: RPMI-8226, 48 h, read-out: Activity
[34] = system: EKVX; test: Cytotoxicity against human EKVX cells assessed as cell growth at 50 nM after 48 hrs by SRB assay; conditions: read-out: Activity
[35] = Cytotoxicity against human SF539 cells assessed as cell growth at 5 uM after 48 hrs by SRB assay; conditions: SF-539, 48 h, read-out: Activity
[36] = Cytotoxicity against human IGROV1 cells assessed as cell growth at 5 uM after 48 hrs by SRB assay; conditions: IGROV-1, 48 h, read-out: Activity
[37] = system: SN12C; test: Cytotoxicity against human SN12C cells assessed as cell growth at 5 nM after 48 hrs by SRB assay; conditions: read-out: Activity
[38] = Cytotoxicity against human COLO205 cells assessed as cell growth at 0.5 uM after 48 hrs by SRB assay; conditions: COLO 205, 48 h, read-out: Activity
[39] = system: MDA-MB-468; test: Cytotoxicity against human MDA-MB-468 cells assessed as cell growth at 50 nM after 48 hrs by SRB assay; conditions: MDA-MB-468, 48 h, read-out: Activity
[40] = system: CCRF-CEM; test: Cytotoxicity against human CCRF-CEM cells assessed as cell growth at 50 uM after 48 hrs by SRB assay; conditions: read-out: Activity
[41] = system: KM12; test: Cytotoxicity against human KM12 cells assessed as cell growth at 50 uM after 48 hrs by SRB assay; conditions: KM12, 48 h, read-out: Activity

## C/C(=C(/c1ccc(O)cc1)c1ccc(OCCN2CCCC2)cc1)c1ccccc1
[1]
  growth at 10 µM: -71%
[2]
  growth at 10 µM: 24%
[3]
  growth at 10 µM: 12%
[4]
  growth at 1 µM: 92%
[5]
  growth at 10 µM: -99%
[6]
  growth at 100 µM: -92%
[7]
  growth at 10 µM: -67%
[8]
  GI50: 3.51 µM
  LC50 (concentration giving 50% net cell kill): 41.5 µM
  TGI: 13.2 µM
[9]
  growth at 10 µM: -57%
[10]
  growth at 10 µM: -51%
[11]
  growth at 1 µM: 122%
[12]
  GI50: 4.17 µM
  TGI: 18.3 µM
  CC50: 61.5 µM
[13]
  growth at 10 µM: 35%
[14]
  growth at 1 µM: 96%
[15]
  GI50: 2.36 µM
  TGI: 5.38 µM
  CC50: 16.9 µM
[16]
  growth at 0.1 µM: 88%

## CCCCCCCCCC(=O)Oc1ccc(/C(=C(/C)c2ccccc2)c2ccc(OCCN3CCCC3)cc2)cc1
[17]
  growth at 0.5 µM: 86%
[18]
  growth at 0.005 µM: 92%
[19]
  growth at 5 µM: 81%
[20]
  growth at 0.005 µM: 86%
[21]
  growth at 50 µM: -76%
[22]
  growth at 5 µM: 86%
[23]
  growth at 0.005 µM: 88%
[24]
  growth at 0.05 µM: 101%
[8]
  GI50: 8.79 µM
  LC50 (concentration giving 50% net cell kill): 31.7 µM
  TGI: 16.7 µM
[25]
  growth at 0.5 µM: 12%
[26]
  growth at 0.5 µM: 67%
[27]
  growth at 0.5 µM: 60%
[28]
  growth at 0.005 µM: 101%
[29]
  growth at 0.05 µM: 102%
[12]
  GI50: 8.03 µM
  TGI: 16.8 µM
  CC50: 35.4 µM
[30]
  growth at 5 µM: 88%
[31]
  growth at 0.005 µM: 102%
[32]
  growth at 50 µM: -89%
[15]
  GI50: 8.46 µM
  TGI: 15.9 µM
  CC50: 29.9 µM
[33]
  growth at 50 µM: -52%
[34]
  growth at 0.05 µM: 90%
[35]
  growth at 5 µM: 92%
[36]
  growth at 5 µM: 84%
[37]
  growth at 0.005 µM: 102%
[38]
  growth at 0.5 µM: 44%
[39]
  growth at 0.05 µM: 100%
[40]
  growth at 50 µM: -47%
[41]
  growth at 50 µM: -86%
